Assay results taken from patent publication US9018236B2, “Cyclodextrin-based microemulsions, and dermatological uses thereof” (Precision Dermatology, Inc., priority 2012, dated 2015).

Experiments:
[1] = Solubility/dispersibility of retinol in the Labrasol-HPGCD-water microemulsion system; format: physicochemical; details: final retinol concentration 1.2%; 15% Labrasol, 5% HPGCD in water
From the text: Any two components (examples: Labrasol®-water, HPXCD-water, or Labrasol®-HPXCD) were mixed (in different ratios) in different scintillation vials and then the third component was titrated to each vial until a clear-to-turbid or turbid-to-clear transition occurred (in simple situations). Finally wt % percentages data for each component (Labrasol®, water, and cyclodextrin) were plotted to construct the ternary phase diagram.
Cyclodextrin used: hydroxypropyl-X-cyclodextrin (X=alpha, beta, or gamma).
Drug can be dissolved in the individual components or any of the two-component combination systems, followed by microemulsion formulation. Alternatively Drug can be directly added to the previously prepared microemulsion phase followed by shaking until a clear solution is achieved (when the achievable drug concentration is known previously).

[2] = cited from earlier work

SMILES: CC1=C(/C=C/C(C)=C/C=C/C(C)=C/CO)C(C)(C)CCC1 [Retinol]
- miscibility in Labrasol-HPGCD-water microemulsion system [1]: complete miscibility
- miscibility in water [2]: immiscible
